Values of other authors, collected in patent publication US7374770B2, “Topical composition for follicular delivery of an ornithine decarboxylase inhibitor” (SkinMedica, Inc., priority 2001, dated 2008).

Conditions: undesirable secondary pharmacological effect, known

For `C#CC(N)CCCN` (stereo not shown) [5-hexyne-1,4-diamine], the “brain 4-aminobutyric acid levels” value is given as “increases”.
